# Source: BindingDB's records for doi:10.7270/Q2NG4P4X (Burnham Center For Chemical Genomics, 2011)
# Biological target: Beta-galactosidase (Escherichia coli, UniProt Q8VNN2)
# Experiment: detection-enzyme interference by beta-gal modulators – biochemical, E. coli enzyme, set 3, artefact control for CCR6 antagonist project, dose response (AID 504712)
# Sequence of Beta-galactosidase (Q8VNN2 whole entry): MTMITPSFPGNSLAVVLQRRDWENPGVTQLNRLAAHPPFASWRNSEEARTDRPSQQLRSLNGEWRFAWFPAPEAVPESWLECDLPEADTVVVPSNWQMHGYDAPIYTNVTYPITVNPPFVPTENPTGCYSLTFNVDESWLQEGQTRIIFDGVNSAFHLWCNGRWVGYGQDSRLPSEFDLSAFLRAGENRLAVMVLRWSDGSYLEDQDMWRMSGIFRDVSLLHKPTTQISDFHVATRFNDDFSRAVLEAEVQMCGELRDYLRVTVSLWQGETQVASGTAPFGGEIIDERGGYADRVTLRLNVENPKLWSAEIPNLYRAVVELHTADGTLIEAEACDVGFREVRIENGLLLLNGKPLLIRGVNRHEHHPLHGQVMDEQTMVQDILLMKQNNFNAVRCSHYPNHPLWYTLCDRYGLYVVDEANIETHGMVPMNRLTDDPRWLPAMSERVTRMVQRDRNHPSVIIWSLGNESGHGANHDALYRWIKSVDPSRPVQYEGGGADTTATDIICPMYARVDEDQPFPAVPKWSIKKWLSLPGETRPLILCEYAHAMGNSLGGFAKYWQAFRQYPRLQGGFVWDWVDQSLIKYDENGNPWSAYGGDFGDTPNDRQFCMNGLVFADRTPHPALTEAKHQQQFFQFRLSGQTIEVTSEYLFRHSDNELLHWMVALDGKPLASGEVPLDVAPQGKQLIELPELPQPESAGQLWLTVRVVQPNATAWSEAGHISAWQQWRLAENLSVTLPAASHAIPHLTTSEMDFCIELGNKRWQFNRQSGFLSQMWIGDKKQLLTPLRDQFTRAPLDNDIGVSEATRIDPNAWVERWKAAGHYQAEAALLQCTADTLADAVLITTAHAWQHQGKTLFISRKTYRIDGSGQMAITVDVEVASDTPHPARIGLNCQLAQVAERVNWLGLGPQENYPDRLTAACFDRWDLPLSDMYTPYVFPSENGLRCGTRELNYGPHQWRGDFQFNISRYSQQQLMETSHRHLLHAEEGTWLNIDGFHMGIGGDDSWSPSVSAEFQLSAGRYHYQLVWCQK
row,SMILES,IC50 [µM]
1,Cc1cc(N=NCc2ccc(F)cc2)nc(-n2nc(C)cc2C)n1 [SMR000426945],> 66.6
2,Oc1c(Cl)c(N=CCc2ccccc2)c(O)c2ccccc12 [MLS002608293],> 66.6
3,Cc1cc(C)nc(NNC=C2C(=O)CC(c3ccc(F)cc3)CC2=O)n1 (stereo not drawn),> 66.6
4,CC1=NN(c2ccccc2)C(=O)/C1=C/NN1C(=O)c2ccc3c4c(ccc(c24)C1=O)CC3 [SMR000171439],> 66.6
5,"COC1=CC=CC(CN=Nc2nc(Nc3ccc([N+](=O)[O-])cc3)nc(N3CCCC3)n2)C1=O (stereo not drawn) [2-hydroxy-3-methoxybenzaldehyde {4-[(4-nitrophenyl)amino]-6-pyrrolidin-1-yl-1,3,5-triazin-2-yl}hydrazone]",> 66.6
6,O=C1C=CC=CC1CN=Nc1ccc([N+](=O)[O-])cn1 (stereo not drawn) [MLS002608402],46
7,"O=C1C([N+](=O)[O-])=CC=CC1CN=Nc1ccc2ccccc2n1 (stereo not drawn) [(6E)-2-nitro-6-[(2-quinolin-2-ylhydrazinyl)methylidene]cyclohexa-2,4-dien-1-one]",> 66.6
8,CCOC1=CC(=Cc2c(-c3ccccc3)[nH]n(-c3nc(-c4ccc(Br)cc4)cs3)c2=O)C=CC1=O,> 66.6
9,O=Nc1c(C2C(=O)Nc3cc(Br)ccc32)[nH]c2ccccc12 (stereo not drawn) [6-bromoindirubin-3-oxime],40.8
10,"Oc1cc(Sc2nnnn2C2CCCCC2)c(O)n1-c1ccccc1 [3-[(1-cyclohexyl-1,2,3,4-tetrazol-5-yl)sulfanyl]-1-phenyl-pyrrolidine-2,5-dione]",> 66.6
11,Oc1cc(Sc2nnnn2-c2ccccc2)c(O)n1-c1cccc(Cl)c1,> 66.6
12,O=C1C([N+](=O)[O-])=CC(Cl)=CC1CN=Nc1ccccn1 (stereo not drawn) [MLS000539830],> 66.6
13,"CC(N=Nc1ccc2ccccc2n1)c1ccccc1O (stereo not drawn) [(6Z)-6-[1-[N'-(2-quinolyl)hydrazino]ethylidene]cyclohexa-2,4-dien-1-one]",> 66.6
14,O=C1C(/C=N/c2ccc(N3CCOCC3)cc2)=CC(Cc2ccccc2)C=C1[N+](=O)[O-] (stereo not drawn) [SMR000231104],> 66.6
15,CCOc1ccc(CN=Nc2ccc(S(=O)(=O)Nc3ccccc3C(=O)O)cc2[N+](=O)[O-])cc1OC [SMR001308940],> 66.6
16,C=c1c(O)c(O)cc2c1=CC=C1[C@@]2(C)CC[C@@]2(C)[C@@H]3C[C@](C)(C(=O)O)CC[C@]3(C)CC[C@]12C,> 66.6
17,O=C1C(O)=CC=CC1CN=Nc1ccc([N+](=O)[O-])cc1 (stereo not drawn) [MLS001207776],> 66.6
18,N#CC(=C1C=CC(N=O)C(Cl)=C1)c1ccc(Cl)cc1 (stereo not drawn) [SMR001570423],> 66.6
19,"Cc1c(NN=C2C(=O)CC(C)(C)CC2=O)c(=O)n(-c2ccccc2)n1C [2-[(1,5-dimethyl-3-oxidanylidene-2-phenyl-pyrazol-4-yl)hydrazinylidene]-5,5-dimethyl-cyclohexane-1,3-dione]",> 66.6
20,"COc1ccc(-n2c(O)cc(Sc3nnc(-c4ccccc4)o3)c2O)cc1 [1-(4-methoxyphenyl)-3-[(5-phenyl-1,3,4-oxadiazol-2-yl)thio]pyrrolidine-2,5-dione]",> 66.6
21,"Cc1cc(C)cc(-n2c(O)cc(Sc3nnnn3-c3ccccc3)c2O)c1 [1-(3,5-dimethylphenyl)-3-(1-phenyltetrazol-5-yl)sulfanylpyrrolidine-2,5-dione]",> 66.6
22,Cc1ccc2nc(-n3c(O)c[nH]c3=S)sc2c1,> 66.6

row,SMILES,IC50 [µM]
1,"COc1cccc(CN=Nc2nc(Nc3ccccc3)nc(-n3nc(C)cc3C)n2)c1O [(6E)-6-[[2-[4-(3,5-dimethylpyrazol-1-yl)-6-phenylazanyl-1,3,5-triazin-2-yl]hydrazinyl]methylidene]-2-methoxy-cyclohexa-2,4-dien-1-one]",> 66.6
2,O=C1C=CC([N+](=O)[O-])=CC1CN=Nc1ccccn1 (stereo not drawn) [MLS000585015],> 66.6
3,C/C=C(\C)C(=O)OC1[C@H](OC(C)=O)C2(CO)C(CC1(C)C)C1=CCC3C4(C)CCC(O[C@@H]5O[C@H](C(=O)O)[C@@H](O[C@@H]6O[C@H](CO)[C@@H](O)[C@H](O)[C@H]6O)[C@H](O)[C@H]5O[C@H]5O[C@H](CO)[C@@H](O)[C@H](O)[C@H]5O)[C@](C)(CO)C4CCC3(C)[C@]1(C)C[C@H]2O (stereo partly drawn) [MLS002695979],> 66.6
4,"C=CCSC(N)=NN=CC1C=C(Br)C=C([N+](=O)[O-])C1=O (stereo not drawn) [N''-[[(E)-(3-bromo-5-nitro-6-oxo-1-cyclohexa-2,4-dienylidene)methyl]amino]carbamimidothioic acid prop-2-enyl ester]",> 66.6
5,CCOc1ccc(CN=Nc2ccc(S(=O)(=O)Nc3ccccc3C(=O)O)cc2[N+](=O)[O-])cc1,> 66.6
6,O=C1Nc2ccc([N+](=O)[O-])cc2/C1=N/NC(=O)c1cc(-c2ccccc2Cl)nc2ccccc12 [2-(2-chlorophenyl)-N'-(2-keto-5-nitro-indol-3-yl)cinchoninohydrazide],> 66.6
7,CN1C(=O)C(C2CC(c3ccc(Cl)cc3)N=N2)C(=O)N(C)C1=O (stereo not drawn) [SMR000439471],> 66.6
8,O=C(NN=CC1C=C([N+](=O)[O-])C=CC1=O)Nc1ccccc1 (stereo not drawn) [MLS000713965],> 66.6
9,CC(C)(C)C1CCC(=NNC(=S)NCc2ccccc2)CC1 (stereo not drawn) [SMR000377499],> 66.6
10,CN1C(=O)/C(=C2/C(=O)Nc3ccccc32)NC1=S [SMR000198608],> 66.6
11,CCOc1ccc(-n2c(O)cc(Sc3nnnn3-c3ccccc3)c2O)cc1 [SMR000271658],> 66.6
12,"Oc1ccccc1-c1nnc(Sc2cc(O)n(-c3ccccc3)c2O)o1 [3-[[(2Z)-2-(6-oxo-1-cyclohexa-2,4-dienylidene)-3H-1,3,4-oxadiazol-5-yl]thio]-1-phenylpyrrolidine-2,5-dione]",> 66.6
13,"CN(C)c1nc(N=NCc2ccccc2O)nc(Nc2ccc(F)cc2)n1 [(6E)-6-[[2-[4-(dimethylamino)-6-(4-fluoroanilino)-1,3,5-triazin-2-yl]hydrazinyl]methylidene]cyclohexa-2,4-dien-1-one]",> 66.6
14,CC(NO)C(=O)C(=CN1CCCCC1)CN1CCCCC1 (stereo not drawn),> 66.6
15,C=CCOc1ccc(CN=Nc2ccc(S(=O)(=O)Nc3ccccc3C(=O)O)cc2[N+](=O)[O-])cc1OC [2-[[4-[2-[(3-methoxy-4-prop-2-enoxy-phenyl)methylidene]hydrazinyl]-3-nitro-phenyl]sulfonylamino]benzoic acid],> 66.6
16,O=C(O)c1ccc(N=NC=CCc2ccc([N+](=O)[O-])o2)cc1 [SMR000590759],33
17,"Cc1ccccc1-n1c(O)cc(Sc2nnc(-c3ccccc3)o2)c1O [1-(2-methylphenyl)-3-[(5-phenyl-1,3,4-oxadiazol-2-yl)sulfanyl]pyrrolidine-2,5-dione]",> 66.6
18,COc1ccc(-n2c(O)c(CN=Nc3nc(C)cc(C)n3)c3ccccc3c2=O)cc1OC [SMR000385482],> 66.6
19,Cc1cc2nc(-n3c(O)c[nH]c3=S)sc2cc1C [SMR000272190],> 66.6
20,O=C1C=CC([N+](=O)[O-])=CC1CN=Nc1nnn[nH]1 (stereo not drawn),> 66.6
21,CCCC1CCC(=NNC(=S)NCCc2ccccc2)CC1 (stereo not drawn) [SMR000347544],> 66.6
